In one experiment the test system is IL-5 production in human blood. Nature of the experiment: In vitro inhibition of IL-5 production in human blood (phytohemagglutinin-stimulated whole blood, ELISA). It counts as cell-based. Conditions: test dose 1×10^−6 M, phytohemagglutinin 2 μg/ml, 48 hours. Here is the method: EXAMPLE C.1: IN VITRO INHIBITION OF IL-5 PRODUCTION IN HUMAN BLOOD
Peripheral blood from healthy male donors was drawn into heparinized syringes (12.5 U heparin/ml). Blood samples were three-fold diluted in RMPI 1640 medium (Life Technologies, Belgium) supplemented with 2 mM L-glutamine, 100 U/ml penicillin and 100 μg/ml streptomycin, and 300 μl fractions were distributed in 24-well multidisc plates. Blood samples were preincubated (60 minutes at 37° C.) in a humidified 6% CO2-atmosphere with 100 μl of drug solvent (final concentration 0.02% dimethylsulfoxide in RPMI 1640) or with 100 μl of an appropriate dose of test compound before being stimulated by the addition of 100 μl of phytohemagglutinin HA17 (Murex, UK) at a final concentration of 2 μg/ml. After 48 hours, cell-free supernatant fluids were collected by centrifugation and stored at −70° C. until tested for the presence of IL-5.
IL-5 measurements were conducted as described in Van Wauwe et al. (1996, Inflamm Res, 45, 357-363) on page 358 using ELISA.
Table 6 lists the percentage inhibition of IL-5 production (column “% inh”) at a test dose of 1×10^−6 M, or in case the percentage inhibition is marked with an “*” 1×10^−5 M, for the compounds of the present invention.
In general terms: In an ELISA, binding on a coated surface is turned into a signal by an enzyme label.
`CC(C)(c1nc(-c2ccccc2)c(N2CCOCC2)s1)c1c(Cl)cc(-n2ncc(=O)[nH]c2=O)cc1Cl` [Compound 14]: the “% inh. (percentage inhibition of IL-5 production)” value was determined as 78%.

`CC(C)(c1nc(-c2ccc(-c3cccs3)s2)cs1)c1c(Cl)cc(-n2ncc(=O)[nH]c2=O)cc1Cl` [Compound 84]: the “% inh. (percentage inhibition of IL-5 production)” value is recorded as 14%. Still for that read-out and setting: the figure for `CC(C)(c1nc(-c2cccnc2)cs1)c1c(Cl)cc(-n2ncc(=O)[nH]c2=O)cc1Cl` [Compound 82] is 85%.

On to `CC(C)(c1nc(-c2ccc(Br)s2)cs1)c1c(Cl)cc(-n2ncc(=O)[nH]c2=O)cc1Cl` [Compound 77], for which the “% inh. (percentage inhibition of IL-5 production)” value was found to be 84%. “1′-[[2-[1-[2,6-dichloro-4-(4,5-dihydro-3,5-dioxo-1,2,4-triazin-2(3H)-yl)phenyl]-1-methylethyl-4-phenyl-5-thiazolyl]acetyl]-(1,4′-dipiperidine) [Compound 24]”: the “% inh. (percentage inhibition of IL-5 production)” value came out at 32%. As for `CC(C)(C)OC(=O)c1sc(C(C)(C)c2c(Cl)cc(-n3ncc(=O)[nH]c3=O)cc2Cl)nc1-c1ccccc1` [Compound 116], the “% inh. (percentage inhibition of IL-5 production)” value is 89%. In the case of `CC(C)(c1nc(-c2ccc(F)cc2F)cs1)c1c(Cl)cc(-n2ncc(=O)[nH]c2=O)cc1Cl` [Compound 18], the “% inh. (percentage inhibition of IL-5 production)” value stood at 91%. Regarding `CC(C)(c1nc(-c2cccc(Cl)c2)cs1)c1c(Cl)cc(-n2ncc(=O)[nH]c2=O)cc1Cl` [Compound 8], the “% inh. (percentage inhibition of IL-5 production)” value came out at 85%. On to `CC(=O)N1CCC(c2sc(C(C)(C)c3c(Cl)cc(-n4ncc(=O)[nH]c4=O)cc3Cl)nc2-c2ccccc2)CC1` [Compound 39], for which the “% inh. (percentage inhibition of IL-5 production)” value was 72%. As to `CC(C)(c1noc(-c2ccc(F)cc2)n1)c1c(Cl)cc(-n2ncc(=O)[nH]c2=O)cc1Cl` [Compound 96], the “% inh. (percentage inhibition of IL-5 production)” value stood at 82%. Take `CC(C)(c1nc(-c2cccc(F)c2)cs1)c1c(Cl)cc(-n2ncc(=O)[nH]c2=O)cc1Cl` [Compound 28]: the “% inh. (percentage inhibition of IL-5 production)” value stood at 83%. Turning to `Cc1sc(C(C)(C)c2c(Cl)cc(-n3ncc(=O)[nH]c3=O)cc2Cl)nc1-c1ccccc1F` [Compound 15], the “% inh. (percentage inhibition of IL-5 production)” value was 81%. As for `CC(C)(c1nc(-c2cccs2)cs1)c1c(Cl)cc(-n2ncc(=O)[nH]c2=O)cc1Cl` [Compound 5], the “% inh. (percentage inhibition of IL-5 production)” value came to 90%. For the molecule `CC(C)(c1noc(-c2ccccc2F)n1)c1c(Cl)cc(-n2ncc(=O)[nH]c2=O)cc1Cl` [Compound 86], the “% inh. (percentage inhibition of IL-5 production)” value came to 88%.

For the molecule `COC(=O)c1cccc(-c2nc(C(C)(C)c3c(Cl)cc(-n4ncc(=O)[nH]c4=O)cc3Cl)no2)c1` [Compound 133], the “% inh. (percentage inhibition of IL-5 production)” value came to 55%. The same measure, in the same setting: for `COC(=O)c1ccc(-c2nc(C(C)(C)c3c(Cl)cc(-n4ncc(=O)[nH]c4=O)cc3Cl)no2)nc1` [Compound 146] the value was 4%; for `CC(C)(c1noc(-c2cccc(Cl)c2)n1)c1c(Cl)cc(-n2ncc(=O)[nH]c2=O)cc1Cl` [Compound 93], 84%; for `CC(C)(c1noc(C2CCNCC2)n1)c1c(Cl)cc(-n2ncc(=O)[nH]c2=O)cc1Cl.Cl` [Compound 152], 21%. Regarding `CN1CCN(Cc2ccsc2-c2csc(C(C)(C)c3c(Cl)cc(-n4ncc(=O)[nH]c4=O)cc3Cl)n2)CC1.O` [Compound 113], the “% inh. (percentage inhibition of IL-5 production)” value is 28%. For the molecule `COC(=O)c1ccc(-c2nc(C(C)(C)c3c(Cl)cc(-n4ncc(=O)[nH]c4=O)cc3Cl)no2)cc1` [Compound 135], the “% inh. (percentage inhibition of IL-5 production)” value came to 11%. In the case of `CC(C)(c1nc(-c2ccccc2)c(-c2cccc(NS(N)(=O)=O)c2)s1)c1c(Cl)cc(-n2ncc(=O)[nH]c2=O)cc1Cl` [Compound 60], the “% inh. (percentage inhibition of IL-5 production)” value is 28%. Still for that read-out and setting: for `CC(C)(c1noc(-c2cccc(F)c2)n1)c1c(Cl)cc(-n2ncc(=O)[nH]c2=O)cc1Cl` [Compound 90] the value was 91%; for `COCCNCc1cccc(-c2sc(C(C)(C)c3c(Cl)cc(-n4ncc(=O)[nH]c4=O)cc3Cl)nc2-c2ccccc2Cl)c1.Cl` [Compound 69], 45%; for “1-[[2-[1-[2,6-dichloro-4-(4,5-dihydro-3,5-dioxo-1,2,4-triazin-2(3H)-yl)-phenyl]-1-methylethyl]-4-phenyl-2-thiazolyl]acetyl-4-phenylmethyl)piperazine [Compound 35]”, 63%. The same measure, in the same setting: for `CC(C)(c1nc(-c2ccccc2)c(C(=O)c2ccccc2)s1)c1c(Cl)cc(-n2ncc(=O)[nH]c2=O)cc1Cl` [Compound 25] the value was 79%. Turning to `CC(C)(c1nc(-c2c(F)cccc2F)cs1)c1c(Cl)cc(-n2ncc(=O)[nH]c2=O)cc1Cl` [Compound 13], the “% inh. (percentage inhibition of IL-5 production)” value worked out at 75%. On the same count and under the same terms, the figure for `CCc1sc(C(C)(C)c2c(Cl)cc(-n3ncc(=O)[nH]c3=O)cc2Cl)nc1-c1ccc(-c2ccccc2)cc1` [Compound 48] is 58%.

The same experiment, now with this note: test dose 1×10^−6 M, phytohemagglutinin 2 μg/ml, 48 hours, read-out: % inh. (percentage inhibition of IL-5 production).
A word on the inhibition: it is how much of the control response was suppressed. As for `CC(C)(c1noc(-c2ccncc2)n1)c1c(Cl)cc(-n2ncc(=O)[nH]c2=O)cc1Cl` [Compound 97, 2-[3,5-dichloro-4-[1-methyl-1-[5-(4-pyridinyl)-1,2,4-oxadiazol-3-yl]ethyl]phenyl]-1,2,4-triazine-3,5(2H,4H)-dione], the inhibition at 1 µM came out at 90%.

Consider `CN1CCN(C(=O)c2cccc(-c3sc(C(C)(C)c4c(Cl)cc(-n5ncc(=O)[nH]c5=O)cc4Cl)nc3-c3ccccc3Cl)c2)CC1` [Compound 61, 1-[3-[2-[1-[2,6-dichloro-4-(4,5-dihydro-3,5-dioxo-1,2,4-triazin-2(3H)-yl)phenyl]-1-methylethyl]-4-(2-chlorophenyl)-5-thiazolyl]benzoyl]-4-methylpiperazine], for which the inhibition at 1 µM came to 29%. `CC(C)(c1noc(-c2ccccc2)n1)c1c(Cl)cc(-n2ncc(=O)[nH]c2=O)cc1Cl` [Compound 88, 2-[3,5-dichloro-4-[1-methyl-1-(5-phenyl-1,2,4-oxadiazol-3-yl)ethyl]phenyl]-1,2,4-triazine-3,5(2H,4H)-dione]: the inhibition at 1 µM was 94%. Still for that read-out and setting: the figure for `COCCN1CCN(Cc2sc(C(C)(C)c3c(Cl)cc(-n4ncc(=O)[nH]c4=O)cc3Cl)nc2-c2ccccc2)CC1` [Compound 42, 2-[3,5-dichloro-4-[1-[5-[[4-(2-methoxyethyl)-1-piperazinyl]methyl]-4-phenyl-2-thiazolyl]-1-methylethyl]phenyl]-1,2,4-triazine-3,5(2H,4H)-dione] is 26%; for `CC(C)(c1nc(-c2ccccc2)c(-c2ccccc2)s1)c1c(Cl)cc(-n2ncc(=O)[nH]c2=O)cc1Cl` [Compound 23, 2-[3,5-dichloro-4-[1-(4,5-diphenyl-2-thiazolyl)-1-methylethyl]phenyl]-1,2,4-triazine-3,5(2H,4H)-dione] it is 91%. Still for that read-out and setting: the figure for `Cc1ncccc1-c1nc(C(C)(C)c2c(Cl)cc(-n3ncc(=O)[nH]c3=O)cc2Cl)no1` [Compound 150, 2-[3,5-dichloro-4-[1-methyl-1-[5-(2-methyl-3-pyridinyl)-1,2,4-oxadiazol-3-yl]ethyl]phenyl]-1,2,4-triazine-3,5(2H,4H)-dione] is 73%.

The record behind these values is patent US6894046B2, “IL-5 inhibiting 6-azauracil derivatives” (Janssen Pharmaceutica N.V., priority 1998, dated 2005).
